Laboratory results from patent publication US20070088043A1, “Novel HDAC inhibitors” (ORCHID RESEARCH LABORATORIES LIMITED., priority 2005, published 2007).

Tests used:
[1] = tested on: NCIH460, HCT116, MDAMB231/U251; assay: Anti-cancer screen, mean GI50 over the cell lines; assay type: cell-based; details: in µM
Method: (§1) Experimental drugs are screened for anti-cancer activity in three cell lines for their GI50, TGI and LC50 values (using five concentrations for each compound). The cell lines are maintained in DMEM containing 10% fetal bovine serum. 96 well micro titer plates are inoculated with cells in 100 μL for 24 h at 37° C., 5% CO2, 95% air and 100% relative humidity. 5000 HCT 116 cells/well, 5000 NCIH 460 cells/well and 5000 U251 cells/well are plated. A separate plate with these cell lines is also inoculated to determine cell viability before the addition of the compounds (T0).
(§2) Following 24-hour incubation, experimental drugs are added to the 96 well plates. Each plate contains one of the above cell lines and the following in triplicate: five different concentrations (0.01, 0.1, 1, 10 and 100 μM) of four different compounds, appropriate dilutions of a cytotoxic standard and control (untreated) wells. Compounds are dissolved in DMSO to make 20 mM stock solutions on the day of drug addition and frozen at −20° C. Serial dilutions of these 20 mM stock solutions are made in complete growth medium such that 100 μL of these drug solutions in medium, of final concentrations equaling 0.01, 0.1, 1, 10 and 100 μM can be added to the cells in triplicate. Standard drugs whose anti-cancer activity has been well documented and which are regularly used are doxorubicin and SAHA.
(§3) For To measurement, 24 hours after seeding the cells, 10 μL of 3-(4,5-Dimethyl-2-thiazolyl)-2,5-diphenyl-2H-tetrazolium (MTT) solution per well is added and incubation carried out for 3 hours at 37° C., 5% CO2, 95% air and 100% relative humidity, protected from light. Cells incubated with compounds for 48 hours are treated similarly except with the addition of 20 μL MTT solution per well and a subsequent incubation under the same conditions. After 3 hours of MTT incubation, well contents are aspirated carefully followed by addition of 150 μL DMSO per well. Plates are agitated to ensure solution of the formazan crystals in DMSO and absorbance read at 570 nm. […]

[2] = tested on: HCT 116 cells; assay: Anti-cancer screen (MTT), HCT116; assay type: cell-based; parameters: HCT116 TGI: unit: uM; details: for GI50: concentration to decrease % growth by 50%; for IC100: read-out: HCT116 TGI; for LC50: concentration to decrease % growth by 150%
Method: as §1, §2, §3

[3] = tested on: NCIH 460 cells; assay: Anti-cancer screen (MTT), NCIH460; assay type: cell-based; parameters: NCIH460 TGI: unit: uM; details: for GI50: concentration to decrease % growth by 50%; for IC100: read-out: NCIH460 TGI; for LC50: concentration to decrease % growth by 150%
Method: as §1, §2, §3

[4] = tested on: MDAMB231/U251; assay: Anti-cancer screen (MTT), MDAMB231/U251; assay type: cell-based; parameters: MDAMB231/U251 TGI: unit: uM; details: MDAMB231/U251 cells, 48 hours; for GI50: concentration to decrease % growth by 50%; for IC100: read-out: MDAMB231/U251 TGI; for LC50: concentration to decrease % growth by 150%
Method: as §1, §2, §3

[5] = tested on: HDAC (Mouse Liver Extract); assay: Histone Deacetylase (HDAC) Inhibition Assay using Boc-Lys (Ac)-AMC Substrate; assay type: biochemical; details: mouse liver enzyme, NA = No Activity, in % (unit assumed)
Text: HDAC Activitv Screening: Histone Deacetylase (HDAC) Inhibition Assay using Boc-Lys (Ac)-AMC Substrate:
Inhibition of HDAC has been implicated to modulate transcription and to induce apoptosis or differentiation in cancer cells. The fluorometric assay provides a fast and fluorescence based method that eliminates radioactivity, extractions or chromatography, as used in traditional assays. The assay based on two steps. First, the HDAC fluorometric substrate, which comprises an acetylated lysine side chain, is incubated with a sample containing HDAC activity (Mouse Liver Extract). Deacetylation of the substrate sensitizes the substrate, in the second step; treatment with the Trypsin stop solution produces a fluorophore that can be easily analyzed using fluorescence plate reader.
Assay was done in 96 well black microplate and total volume of the assay is 100 ul. Mouse liver enzyme is diluted 1:6 with HDAC buffer. Enzyme cocktail made of 10 ul of diluted enzyme and 30 ul of HDAC buffer. 40 ul of enzyme cocktail dispensed into each well. 10 ul of different concentrations of inhibitor added in to each well, except enzyme control well. Preincubated the plate at 30° C. for 5 minutes. The HDAC reaction is started by adding 50 ul of HDAC substrate (Boc-Lys (Ac)-AMC Substrate) solution. Incubated the plate at 30° C. for 30 minutes. Adding 100 ul of Trypsin stop solution stops the reaction. The plate is incubated again at 30° C. for 20-30 minutes. The release of AMC is monitored by measuring the fluorescence at excitation wavelength of 365 or 360 nm and emission wavelength of 440 or 460 nm. Buffer and substrate alone kept for blank subtraction. (Dennis Wegener et al, Anal. Biochem, 321, 2003, 202-208).

[6] = Homo sapiens, HCT-116, HCT116 cells, 48 hours, MTT
[7] = Homo sapiens, HCT-116, HCT116 cells, 48 hours, MTT, concentration to decrease % growth by 100%
[8] = Homo sapiens, NCI-H460, NCIH460 cells, 48 hours, MTT
[9] = Homo sapiens, NCI-H460, NCIH460 cells, 48 hours, MTT, concentration to decrease % growth by 100%
[10] = concentration to decrease % growth by 100%

SMILES | Mean GI50 [1] | GI50 [2, 6] [µM] | IC100 [2, 7] [µM] | LC50 [2, 6] [µM] | GI50 [3, 8] [µM] | IC100 [3, 9] [µM] | LC50 [3, 8] [µM] | GI50 [4] [µM] | IC100 [4, 10] [µM] | LC50 [4] [µM] | HDAC Inhibition 1 μM [5] | HDAC Inhibition 10 μM [5] | CC50 [2] [µM] | GI50 ([2]; HCT116 cells, 48 hours, MTT) [µM] | HCT116 TGI ([2]; HCT116 cells, 48 hours, MTT, concentration to decrease % growth by 100%) | CC50 [3] [µM] | GI50 ([3]; NCIH460 cells, 48 hours, MTT) [µM] | NCIH460 TGI ([3]; NCIH460 cells, 48 hours, MTT, concentration to decrease % growth by 100%) | MDAMB231/U251 TGI [4, 10]
CC(=O)SCCCCC(=O)N1CCN(CC(=O)Nc2nc(C(C)(C)C)cs2)CC1 [Example 14, 2-[4-(5-Thioacetylpentanoyl)piperazin-1-yl]-N-(4-tertiarybutyl-1,3-thiazol-2-yl)acetamide] | >100 | 50 | > 100 | > 100 | > 100 | > 100 | > 100 | 0.08 | 27 | > 100 | 23.11 | 57.33 | – | – | – | – | – | – | –
CC(=O)SCCCCCC(=O)N1CCN(CC(=O)Nc2cccc(F)c2)CC1 [Example 22, 2-[4-(6-Thioacetylhexanoyl)piperazin-1-yl]-N-(6-fluorophenyl-2-yl)acetamide] | >100 | 67 | > 100 | > 100 | > 100 | > 100 | > 100 | > 100 | > 100 | > 100 | 6.0 | 50.0 | – | – | – | – | – | – | –
O=C(CCCCCCC(=O)N1CCN(CC(=O)Nc2nccs2)CC1)NO [Example 34, 8-{4-[2-(1,3-Thiazol-2-ylamino)-2-oxoethyl]piperazin-1-yl}-N-hydroxy-8-oxo octanamide] | 28 | 50 | > 100 | > 100 | > 100 | > 100 | > 100 | 6 | 74 | > 100 | 45.65 | 89.86 | – | – | – | – | – | – | –
O=C(CN1CCN(C(=O)CCCCCS)CC1)Nc1nc2ccccc2s1 [Example 24, N-1,3-benzothiazol-2-yl-2-[4-(6-mercaptohexanoyl)piperazin-1-yl]acetamide] | 21.90 | 0.7 | > 100 | > 100 | 60 | > 100 | > 100 | 5 | 66 | > 100 | 4 | 27.4 | – | – | – | – | – | – | –
CCOc1ccc2nc(NC(=O)CN3CCN(C(=O)CCCCCCC(=O)NO)CC3)sc2c1 [Example 32, 8-{4-[2-(6-Ethoxy-1,3-benzothiazol-2-ylamino)-2-oxoethyl]piperazin-1-yl}-N-hydroxy-8-oxo octanamide] | 15.50 | – | – | – | – | – | – | 1.5 | – | 98 | 60.30 | 98.91 | 95 | 7 | 42 | > 100 | 38 | 72 | 9.5
O=C(CCCCCCC(=O)N1CCN(CC(=O)Nc2ccccc2)CC1)NO [Example 31, 8-{4-[2-(Phenyl-2-ylamino)-2-oxoethyl]piperazin-1-yl}-N-hydroxy-8-oxo octanamide] | 40.20 | 60 | > 100 | > 100 | 60 | > 100 | > 100 | 0.6 | 94 | > 100 | 45.20 | 84.96 | – | – | – | – | – | – | –
